The target of experiment [1] is T1, Muscle, skeletal receptor tyrosine-protein kinase (Homo sapiens) (UniProt O15146).
T1 sequence (whole entry): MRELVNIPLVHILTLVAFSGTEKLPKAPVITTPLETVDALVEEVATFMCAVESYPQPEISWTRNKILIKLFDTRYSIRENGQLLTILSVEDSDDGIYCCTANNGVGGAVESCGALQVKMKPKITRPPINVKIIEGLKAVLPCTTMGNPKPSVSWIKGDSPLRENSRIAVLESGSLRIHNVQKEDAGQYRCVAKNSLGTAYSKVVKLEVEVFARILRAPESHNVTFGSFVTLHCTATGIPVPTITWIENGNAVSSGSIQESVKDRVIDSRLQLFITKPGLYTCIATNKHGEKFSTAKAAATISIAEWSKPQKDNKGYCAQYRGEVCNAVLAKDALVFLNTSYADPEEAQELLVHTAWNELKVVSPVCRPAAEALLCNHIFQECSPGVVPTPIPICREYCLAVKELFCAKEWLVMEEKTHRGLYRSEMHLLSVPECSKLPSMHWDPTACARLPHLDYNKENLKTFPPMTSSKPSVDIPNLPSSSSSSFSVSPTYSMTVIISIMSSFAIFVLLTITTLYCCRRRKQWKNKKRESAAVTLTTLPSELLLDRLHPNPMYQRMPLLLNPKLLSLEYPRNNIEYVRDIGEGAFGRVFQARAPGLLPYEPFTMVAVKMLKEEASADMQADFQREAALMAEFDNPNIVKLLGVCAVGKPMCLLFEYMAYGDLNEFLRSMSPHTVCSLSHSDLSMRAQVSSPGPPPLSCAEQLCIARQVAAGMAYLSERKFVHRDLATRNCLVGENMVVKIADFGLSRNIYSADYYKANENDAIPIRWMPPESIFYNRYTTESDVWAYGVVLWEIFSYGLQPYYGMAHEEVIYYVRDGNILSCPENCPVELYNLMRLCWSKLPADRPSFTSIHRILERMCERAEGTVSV
The experiment in a line: Residual activity of MUSK at 1 uM by microplate scintillation counting.

Experiment [2] deals with Homeodomain-interacting protein kinase 1 (Homo sapiens) (UniProt Q86Z02). Description: Residual activity of HIPK1 at 10 uM by microplate scintillation counting.
For experiment [3], the target named is Ribosomal protein S6 kinase alpha-1 (Homo sapiens) (UniProt Q15418). Description: Residual activity of RPS6KA1 at 1 uM by microplate scintillation counting.
The target of experiment [4] is T2, Testis-specific serine/threonine-protein kinase 2 (Homo sapiens) (UniProt Q96PF2).
T2 sequence (whole entry): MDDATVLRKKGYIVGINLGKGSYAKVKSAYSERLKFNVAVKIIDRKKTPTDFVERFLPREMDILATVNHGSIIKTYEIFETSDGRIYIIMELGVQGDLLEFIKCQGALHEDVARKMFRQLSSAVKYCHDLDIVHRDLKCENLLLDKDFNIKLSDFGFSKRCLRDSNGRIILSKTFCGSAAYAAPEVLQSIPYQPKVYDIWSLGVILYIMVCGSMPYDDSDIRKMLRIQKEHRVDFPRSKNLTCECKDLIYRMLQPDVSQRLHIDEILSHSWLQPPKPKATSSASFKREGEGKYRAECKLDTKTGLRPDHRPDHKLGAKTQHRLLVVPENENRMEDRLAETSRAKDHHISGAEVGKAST
Description: Residual activity of TSK2 at 0.1 uM by microplate scintillation counting.

The target in experiment [5] is Serine/threonine-protein kinase MARK2 (Homo sapiens) (UniProt Q7KZI7). The experiment in a line: Residual activity of MARK2 at 0.1 uM by microplate scintillation counting.
For experiment [6], the target named is Calcium/calmodulin-dependent protein kinase type 1D (Homo sapiens) (UniProt Q8IU85). Description: Residual activity of CAMK1D at 1 uM by microplate scintillation counting.
The target in experiment [7] is Serine/threonine-protein kinase PAK 5 (Homo sapiens) (UniProt Q9P286). Description: Residual activity of PAK7 at 1 uM by microplate scintillation counting.
In experiment [8] the target is T3, Dual specificity protein kinase TTK (Homo sapiens) (UniProt P33981).
T3 sequence (whole entry): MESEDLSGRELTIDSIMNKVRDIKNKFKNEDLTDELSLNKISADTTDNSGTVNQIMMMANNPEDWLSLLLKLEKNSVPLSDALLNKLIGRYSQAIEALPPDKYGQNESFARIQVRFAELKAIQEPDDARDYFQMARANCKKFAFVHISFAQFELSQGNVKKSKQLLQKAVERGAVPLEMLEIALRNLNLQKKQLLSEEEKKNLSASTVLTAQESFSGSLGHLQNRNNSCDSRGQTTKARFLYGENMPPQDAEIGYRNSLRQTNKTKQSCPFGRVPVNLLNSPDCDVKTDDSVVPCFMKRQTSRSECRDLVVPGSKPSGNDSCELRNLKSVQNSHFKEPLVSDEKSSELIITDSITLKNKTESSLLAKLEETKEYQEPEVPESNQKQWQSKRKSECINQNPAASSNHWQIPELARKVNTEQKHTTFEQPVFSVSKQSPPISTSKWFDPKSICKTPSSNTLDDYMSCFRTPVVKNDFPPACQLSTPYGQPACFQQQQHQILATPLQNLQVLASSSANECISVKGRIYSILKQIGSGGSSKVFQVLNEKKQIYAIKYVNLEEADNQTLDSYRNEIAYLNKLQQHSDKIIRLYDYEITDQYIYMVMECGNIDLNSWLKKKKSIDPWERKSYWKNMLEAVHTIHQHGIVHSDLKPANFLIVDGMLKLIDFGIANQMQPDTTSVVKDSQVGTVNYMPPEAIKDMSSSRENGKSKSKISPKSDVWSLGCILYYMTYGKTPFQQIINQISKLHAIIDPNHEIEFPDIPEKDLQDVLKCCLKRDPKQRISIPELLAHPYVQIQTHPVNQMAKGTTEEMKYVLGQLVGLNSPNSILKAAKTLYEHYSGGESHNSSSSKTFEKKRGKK
The experiment in a line: Residual activity of TTK at 10 uM by microplate scintillation counting.

The target of experiment [9] is Serine/threonine-protein kinase pim-2 (Homo sapiens) (UniProt Q9P1W9). The experiment in a line: Residual activity of PIM2 at 0.1 uM by microplate scintillation counting.
Serine/threonine-protein kinase pim-2 (Homo sapiens), sequence (Q9P1W9 whole entry, looked up): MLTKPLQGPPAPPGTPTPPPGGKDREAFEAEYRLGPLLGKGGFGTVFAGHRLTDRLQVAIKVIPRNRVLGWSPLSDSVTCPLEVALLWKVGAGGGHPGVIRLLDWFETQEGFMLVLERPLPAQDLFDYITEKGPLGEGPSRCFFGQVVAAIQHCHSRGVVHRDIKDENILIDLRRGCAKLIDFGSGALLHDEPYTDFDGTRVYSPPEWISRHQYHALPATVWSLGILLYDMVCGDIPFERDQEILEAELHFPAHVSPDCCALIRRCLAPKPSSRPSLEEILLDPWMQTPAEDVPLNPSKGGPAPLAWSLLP

Ribosomal protein S6 kinase alpha-1 (Homo sapiens), sequence (Q15418 whole entry): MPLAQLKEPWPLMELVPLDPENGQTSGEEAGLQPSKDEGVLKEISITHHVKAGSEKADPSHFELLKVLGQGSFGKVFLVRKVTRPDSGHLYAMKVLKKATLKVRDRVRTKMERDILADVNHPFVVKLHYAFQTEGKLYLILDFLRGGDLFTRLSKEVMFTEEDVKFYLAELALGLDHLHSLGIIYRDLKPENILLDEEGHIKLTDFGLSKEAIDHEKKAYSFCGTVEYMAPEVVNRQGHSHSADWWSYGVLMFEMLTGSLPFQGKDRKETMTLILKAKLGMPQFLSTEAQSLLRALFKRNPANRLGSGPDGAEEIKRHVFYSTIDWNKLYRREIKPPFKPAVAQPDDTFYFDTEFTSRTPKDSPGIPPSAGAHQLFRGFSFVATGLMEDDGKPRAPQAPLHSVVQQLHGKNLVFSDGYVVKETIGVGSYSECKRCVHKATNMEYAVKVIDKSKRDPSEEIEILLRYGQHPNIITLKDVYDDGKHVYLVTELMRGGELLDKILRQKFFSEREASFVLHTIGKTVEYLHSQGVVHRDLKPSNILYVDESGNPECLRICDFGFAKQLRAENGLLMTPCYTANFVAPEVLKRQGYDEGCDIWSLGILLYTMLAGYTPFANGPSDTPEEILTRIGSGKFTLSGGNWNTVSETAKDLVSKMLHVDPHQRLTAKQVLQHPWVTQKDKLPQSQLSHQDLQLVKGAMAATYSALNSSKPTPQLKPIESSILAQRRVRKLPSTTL
Serine/threonine-protein kinase MARK2 (Homo sapiens), sequence (Q7KZI7 whole entry): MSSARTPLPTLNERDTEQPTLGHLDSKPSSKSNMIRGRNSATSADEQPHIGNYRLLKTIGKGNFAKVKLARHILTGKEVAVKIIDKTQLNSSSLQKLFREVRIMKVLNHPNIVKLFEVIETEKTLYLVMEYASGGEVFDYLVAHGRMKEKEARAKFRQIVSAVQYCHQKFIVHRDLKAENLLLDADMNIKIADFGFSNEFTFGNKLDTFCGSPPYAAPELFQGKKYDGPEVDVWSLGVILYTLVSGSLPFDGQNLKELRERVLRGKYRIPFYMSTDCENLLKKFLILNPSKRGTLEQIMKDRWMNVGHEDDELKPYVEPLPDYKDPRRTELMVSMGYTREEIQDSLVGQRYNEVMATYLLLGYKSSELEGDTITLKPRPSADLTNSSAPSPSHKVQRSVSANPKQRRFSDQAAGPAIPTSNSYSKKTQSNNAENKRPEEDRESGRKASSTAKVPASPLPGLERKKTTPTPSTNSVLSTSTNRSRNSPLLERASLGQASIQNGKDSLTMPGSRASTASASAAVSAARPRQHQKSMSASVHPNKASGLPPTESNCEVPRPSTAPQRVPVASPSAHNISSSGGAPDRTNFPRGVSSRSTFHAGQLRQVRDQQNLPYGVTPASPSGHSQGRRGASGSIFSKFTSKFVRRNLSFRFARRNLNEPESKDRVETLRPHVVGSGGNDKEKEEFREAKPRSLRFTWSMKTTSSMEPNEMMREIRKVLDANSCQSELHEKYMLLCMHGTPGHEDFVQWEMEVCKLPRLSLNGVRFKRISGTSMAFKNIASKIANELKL
Calcium/calmodulin-dependent protein kinase type 1D (Homo sapiens), sequence (Q8IU85 whole entry, looked up): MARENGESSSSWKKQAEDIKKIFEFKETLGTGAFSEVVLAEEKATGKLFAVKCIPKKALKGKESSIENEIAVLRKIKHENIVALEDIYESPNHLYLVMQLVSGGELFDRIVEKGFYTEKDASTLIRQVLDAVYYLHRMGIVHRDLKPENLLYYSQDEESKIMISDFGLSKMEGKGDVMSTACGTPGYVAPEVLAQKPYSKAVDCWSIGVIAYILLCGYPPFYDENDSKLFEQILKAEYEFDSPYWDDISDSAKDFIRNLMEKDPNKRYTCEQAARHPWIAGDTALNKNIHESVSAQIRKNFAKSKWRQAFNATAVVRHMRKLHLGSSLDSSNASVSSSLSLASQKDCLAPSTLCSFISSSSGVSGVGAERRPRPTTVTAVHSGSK
Serine/threonine-protein kinase PAK 5 (Homo sapiens), sequence (Q9P286 whole entry, looked up): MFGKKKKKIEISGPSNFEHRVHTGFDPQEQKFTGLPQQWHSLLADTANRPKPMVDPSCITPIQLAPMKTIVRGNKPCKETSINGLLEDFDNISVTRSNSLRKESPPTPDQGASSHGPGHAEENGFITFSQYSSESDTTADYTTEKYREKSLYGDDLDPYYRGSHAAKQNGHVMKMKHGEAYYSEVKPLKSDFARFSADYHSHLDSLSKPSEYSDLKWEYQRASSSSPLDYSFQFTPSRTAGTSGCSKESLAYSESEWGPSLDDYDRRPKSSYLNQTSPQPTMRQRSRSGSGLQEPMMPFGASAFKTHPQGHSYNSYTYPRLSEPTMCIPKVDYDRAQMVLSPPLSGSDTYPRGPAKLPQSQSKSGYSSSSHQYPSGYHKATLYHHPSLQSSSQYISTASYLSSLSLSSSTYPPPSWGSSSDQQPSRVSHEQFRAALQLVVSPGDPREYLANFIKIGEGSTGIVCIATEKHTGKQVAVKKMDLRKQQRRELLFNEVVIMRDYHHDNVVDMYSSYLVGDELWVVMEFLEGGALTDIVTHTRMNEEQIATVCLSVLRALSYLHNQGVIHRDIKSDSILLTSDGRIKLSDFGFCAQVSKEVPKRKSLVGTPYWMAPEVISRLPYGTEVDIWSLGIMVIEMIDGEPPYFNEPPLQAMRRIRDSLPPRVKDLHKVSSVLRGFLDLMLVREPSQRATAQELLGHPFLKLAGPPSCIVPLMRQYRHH
Homeodomain-interacting protein kinase 1 (Homo sapiens), sequence (Q86Z02 whole entry, looked up): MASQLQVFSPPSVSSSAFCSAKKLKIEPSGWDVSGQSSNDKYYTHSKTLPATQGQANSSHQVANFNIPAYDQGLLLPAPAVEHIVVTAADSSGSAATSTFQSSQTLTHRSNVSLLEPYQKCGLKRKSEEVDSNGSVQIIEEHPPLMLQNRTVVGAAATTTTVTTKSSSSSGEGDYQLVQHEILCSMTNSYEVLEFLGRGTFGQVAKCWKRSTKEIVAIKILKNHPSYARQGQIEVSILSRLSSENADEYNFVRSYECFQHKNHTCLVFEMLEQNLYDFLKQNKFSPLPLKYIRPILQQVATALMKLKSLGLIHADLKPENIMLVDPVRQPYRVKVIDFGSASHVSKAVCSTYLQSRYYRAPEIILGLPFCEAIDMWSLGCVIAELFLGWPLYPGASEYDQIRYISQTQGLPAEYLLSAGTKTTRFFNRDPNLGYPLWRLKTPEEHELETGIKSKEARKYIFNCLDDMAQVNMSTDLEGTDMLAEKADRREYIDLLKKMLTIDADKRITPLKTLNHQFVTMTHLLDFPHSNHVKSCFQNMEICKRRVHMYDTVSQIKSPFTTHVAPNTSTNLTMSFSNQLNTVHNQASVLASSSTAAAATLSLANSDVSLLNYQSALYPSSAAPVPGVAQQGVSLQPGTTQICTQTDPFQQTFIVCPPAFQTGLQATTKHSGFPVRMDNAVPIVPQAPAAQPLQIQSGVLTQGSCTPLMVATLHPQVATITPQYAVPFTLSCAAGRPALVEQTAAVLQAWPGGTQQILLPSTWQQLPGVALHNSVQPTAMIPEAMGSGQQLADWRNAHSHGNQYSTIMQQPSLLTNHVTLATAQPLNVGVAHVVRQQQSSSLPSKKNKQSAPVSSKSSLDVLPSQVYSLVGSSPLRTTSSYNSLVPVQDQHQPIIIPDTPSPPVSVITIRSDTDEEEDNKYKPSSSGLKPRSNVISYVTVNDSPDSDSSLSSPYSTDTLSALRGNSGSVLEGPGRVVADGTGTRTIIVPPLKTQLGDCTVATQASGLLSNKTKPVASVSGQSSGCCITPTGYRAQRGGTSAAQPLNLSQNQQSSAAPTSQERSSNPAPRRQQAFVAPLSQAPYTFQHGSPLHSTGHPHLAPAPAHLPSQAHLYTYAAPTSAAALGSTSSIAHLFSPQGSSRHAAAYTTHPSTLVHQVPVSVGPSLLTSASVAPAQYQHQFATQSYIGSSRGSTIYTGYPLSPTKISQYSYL

For the molecule `COc1cc2c(Oc3ccc(-c4nc5ccccc5s4)cc3)ncnc2cc1OCCCN1CCCC1`, the residual activity – broadly, the signal under treatment as a percentage of the control signal – in experiment [1] came to 94%; in [2], 103%; in [3], 74%; in experiment [4] it was 101%; in experiment [5], 90%; in [6], 92%. For the same molecule, the figures for the residual activity in [7], in experiment [8] and in experiment [9] were 83%, 84% and 104%, respectively.
`COc1cc2c(Oc3ccc(-c4nc5ccccc5s4)cc3F)ncnc2cc1OCCCN1CCN(C)CC1`: the residual activity in experiment [1] turned out to be 88%; in [2], 142%; in experiment [3], 88%; in experiment [4], 96%; in [5] it was 87%; in experiment [6], 91%. Moreover, the residual activity came to 83% in experiment [7], 70% in experiment [8] and 94% in experiment [9].
On to `COc1cc2c(Oc3ccc(-c4nc5ccccc5s4)cc3)ncnc2cc1OCCCN1CCN(C)CC1`, for which the residual activity in experiment [1] was 89%; in [2], 132%; in experiment [3], 78%; in experiment [4], 97%; in experiment [5], 82%; in experiment [6] it was 87%. In addition, the results for the residual activity in experiment [7], in experiment [8] and in [9] were 77%, 69% and 64%, respectively.
